In patent US20070060508A1, “Binding molecules” (priority 2002, published 2007):
Ends that are not written are not given here.

System: Daudi cells
Test: Cytotoxicity test: NK effector cells (YT) incubated with tumor target cells (Daudi) plus test peptide, LDH release
Type: cell-based
Conditions: YT and Daudi cells 1:10, 16 h
Experimental: For the cytotoxicity measurement, NK cells, which specifically kill tumor cells, as effector cells were incubated with tumor cells as target cells in the presence of the test peptides. The cytotoxicity measurement was performed by measuring the release of lactate dehydrogenase (LDH) according to the standard protocol by a cytotoxicity test kit (Promega, Germany) and in a microwell plate reader. As NK cells (E), YT cells (DSMZ, Germany) were used. As target cells (T), Daudi cells (DSMZ, Germany) were used. YT and Daudi cells were seeded in microwell plates at a ratio of 1:10 and incubated in the presence of 0.3, 3, 30:M test peptide for 16 h.
On the next day, 10:l of lysis buffer each were added to the cells and the cells were incubated for additional 2 h. Subsequently, 5:l of the agent were transferred into a second microwell plate and combined with 50:l of substrate buffer. After a 30 min incubation, the reaction was terminated by 50:l of stop solution and the absorption of the formed MTT color complex was measured in a microwell plate reader.

Sequence | Cytotoxicity (0.3:M test peptide) [%] | Cytotoxicity (3:M test peptide) [%] | Cytotoxicity (30:M test peptide) [%]
APTSSSTKKTQLQLEHFLLDFQMILNGINN [Sequence 2, APTSSSTKKT QLQLEHFLLD FQMILNGINN] | 30 | 80 | 10
APTSSSTKKTQLQLEHLLLKLQMILNGINN [Sequence 1, APTSSSTKKT QLQLEHLLLK LQMILNGINN] | 30 | 30 | 30
APTSSSTKKTQLQLEHFLMKFQMILNGINN [Sequence 3, APTSSSTKKT QLQLEHFLMK FQMILNGINN] | 0 | 20 | 0
